Laboratory results reported in patent US10131658B2, “Anti-alphavbeta1 integrin compounds and methods” (The Regents of the University of California, priority 2013, dated 2018).

Test system: TGFβ activation by cells expressing αvβ1
Assay: TGFβ activation assay (co-culture with PAI1-luciferase TGFβ reporter cells)
Assay type: cell-based
Conditions: not given
Protocol: Test cells were plated at 50K cells/well in 96-well plates together with mink lung epithelial cells expressing firefly luciferase downstream of the TGFβ sensitive portion of the plasminogen activator inhibitor 1 promoter (15K cells/well). Cells were co-cultured for 16 hours and TGFβ activity was calculated by measurement of luminescencein the presence and absence of TGFβ-blocking antibody, 1D11.

| SMILES | TGFβ activation by cultured liver myofibroblasts |
| --- | --- |
| N=C(N)NCCCCC(=O)Nc1ccc(C[C@H](NC(=O)[C@@H]2CCCN2S(=O)(=O)c2ccccc2)C(=O)O)cc1 [Compound 8, (S)-3-(4-(5-guanidinopentanamido)phenyl)-2-((S)-1-(phenylsulfonyl)pyrrolidine-2-carboxamido)propanoic acid] | inhibits TGFβ activation |

Test system: αvβ1 integrin
Assay: Cell Adhesion Assay (integrin-specific adhesion, CHO cells transfected with human αv adhering to fibronectin)
Assay type: cell-based
Conditions: Cell Adhesion Assay
Protocol: The effects of c8 and c16 on cell adhesion mediated by α5β1, α8β1, αvβ1, αvβ3, αvβ5, αvβ6, and αvβ8 were measured using pairs of cell lines and ligands selected to isolate the effect of each individual integrin. For α5β1 we utilized the colon carcinoma cell line, SW480, plated on 0.3 μg/ml fibronectin, for α8β1, we utilized SW480 cells transfected with human α8 adhering to 1 μg/ml recombinant TGFβ1 LAP [5], for αvβ1 we used Chinese Hamster Ovary Cells (CHO cells) transfected with human αv adhering to 0.3 μg/ml fibronectin [6], for αvβ3 we used SW480 cells transfected with human β3, for αvβ5 we used wild type SW480 cells adhering to 0.1 μg/ml vitronectin. […] Cells were allowed to attach for 30-60 min at 37° C. After incubation, non-adherent cells were removed by discarding the media and spinning the plate top-side down at 500 rpm for 5 minutes. Cells were then fixed and stained with 40 ul of 0.5% Crystal violet, 1% Formaldehyde, 20% Methanol for 30 minutes and lysed with 2% Trition-X. Absorbance was measured at 595 nm in a Microplate reader. For all assays, concentration-response curves were constructed by non-linear regression analysis and IC50 values were calculated using GraphPad Prism software.
αvβ1 integrin inhibition is effective in cell adhesion assay/mouse liver fibrosis model: Inhibitors were tested in cell adhesion assay to test their potency/selectivity. A panel of cell lines and integrin ligands were developed to allow rapid examination of potency and specificity of inhibitors against all 8 integrins that recognize RGD sequences in ligands. A subset of these was used to generate the very encouraging data about 8 shown above. These cell lines were used to calculate IC50 concentrations for each inhibitor synthesized to rapidly generate structure activity information to drive subsequent modification and synthesis. Inhibitors were evaluated for showing better potency/selectivity in CCl4-induced liver fibrosis. A general inhibitor of αv integrins can reverse fibrosis in this model when administered as a continuous subcutaneous infusion (from Alzet pumps) beginning 3 weeks after CCl4 initiation. However, global inhibition of all αv integrins is likely to cause unacceptable side effects. […] As above, pumps will be inserted after 3 weeks of CCl4 treatment. Once we find small molecules that are effective, each will be further tested in the UUO model of renal fibrosis and the bleomycin model of pulmonary fibrosis. Again we will examine therapeutic rather than prophylactic efficacy by beginning treatment in each model after the onset of fibrosis.

| SMILES | IC50 [nM] |
| --- | --- |
| N=C(N)Nc1ccc(C(=O)Nc2ccc(C[C@H](NC(=O)[C@@H]3CCCN3S(=O)(=O)c3ccccc3)C(=O)O)cc2)cc1 [Compound 200, (S)-3-(4-(4-guanidinobenzamido)phenyl)-2-((S)-1-(phenylsulfonyl)pyrrolidine-2-carboxamido)propanoic acid] | 10 to 1000 |
| N=C(N)NCCC(=O)Nc1ccc(C[C@H](NC(=O)[C@@H]2CCCN2S(=O)(=O)c2ccccc2)C(=O)O)cc1 [Compound 5, (S)-3-(4-(3-guanidinopropanamido)phenyl)-2-((S)-1-(phenylsulfonyl)pyrrolidine-2-carboxamido)propanoic acid] | < 10 |
| CN(C)c1cccc2c(S(=O)(=O)N3CCCC3C(=O)N[C@@H](Cc3ccc(NC(=O)CCCCNC(=N)N)cc3)C(=O)O)cccc12 (stereo partly drawn) [Compound 215] | < 10 |
| N=C(N)NCCOCC(=O)Nc1ccc(C[C@H](NC(=O)[C@@H]2CCCN2S(=O)(=O)c2ccccc2)C(=O)O)cc1 [Compound 204, (S)-3-(4-(2-(2-guanidinoethoxy)acetamido)phenyl)-2-((S)-1-(phenylsulfonyl)pyrrolidine-2-carboxamido)propanoic acid] | 10 to 1000 |
| CNCCCCCC(=O)N[C@H](CCCNC(=N)N)C(=O)Nc1ccc(C[C@H](NC(=O)C2CCCN2S(=O)(=O)c2ccccc2)C(=O)O)cc1 (stereo partly drawn) [Compound 198] | 10 to 1000 |
| CNCCCCCC(=O)N[C@H](CCCNC(=N)N)C(=O)Nc1ccc(C[C@H](NC(=O)[C@@H]2CCCN2S(=O)(=O)c2ccccc2)C(=O)O)cc1 (stereo in doubt) [Compound 199] | < 10 |
| N=C(N)NCCCCC(=O)Nc1ccc(C[C@H](NC(=O)[C@@H]2CCCN2S(=O)(=O)c2ccccc2)C(=O)O)cc1 [Compound 8, (S)-3-(4-(5-guanidinopentanamido)phenyl)-2-((S)-1-(phenylsulfonyl)pyrrolidine-2-carboxamido)propanoic acid] | < 10 |
| N=C(N)NCCCCCC(=O)Nc1ccc(C[C@H](NC(=O)[C@@H]2CCCN2S(=O)(=O)c2ccccc2)C(=O)O)cc1 [Compound 10, (S)-3-(4-(6-guanidinohexanamido)phenyl)-2-((S)-1-(phenylsulfonyl)pyrrolidine-2-carboxamido)propanoic acid] | 10 to 1000 |
| N=C(N)Nc1cccc(CC(=O)Nc2ccc(C[C@H](NC(=O)[C@@H]3CCCN3S(=O)(=O)c3ccccc3)C(=O)O)cc2)c1 [Compound 205, (S)-3-(4-(2-(3-guanidinophenyl)acetamido)phenyl)-2-((S)-1-(phenylsulfonyl)pyrrolidine-2-carboxamido)propanoic acid] | 10 to 1000 |
| Cc1cc(C)cc(S(=O)(=O)N2CCC[C@H]2C(=O)N[C@@H](Cc2ccc(NC(=O)CCCNC(=N)N)cc2)C(=O)O)c1 [Compound 214] | 10 to 1000 |
| N=C(N)NCC(=O)Nc1ccc(C[C@H](NC(=O)[C@@H]2CCCN2S(=O)(=O)c2ccccc2)C(=O)O)cc1 [Compound 4, (S)-3-(4-(2-guanidinoacetamido)phenyl)-2-((S)-1-(phenylsulfonyl)pyrrolidine-2-carboxamido)propanoic acid] | 10 to 1000 |
| N=C(N)NC(=O)CCC(=O)Nc1ccc(C[C@H](NC(=O)[C@@H]2CCCN2S(=O)(=O)c2ccccc2)C(=O)O)cc1 [Compound 93] | 10 to 1000 |
| N=C(N)Nc1cccc(C(=O)Nc2ccc(C[C@H](NC(=O)[C@@H]3CCCN3S(=O)(=O)c3ccccc3)C(=O)O)cc2)c1 [Compound 201, (S)-3-(4-(3-guanidinobenzamido)phenyl)-2-((S)-1-(phenylsulfonyl)pyrrolidine-2-carboxamido)propanoic acid] | < 10 |

More lines, now with the values ahead:

| IC50 [nM] | SMILES |
| --- | --- |
| 10 to 1000 | Cc1cnc(NCCCC(=O)Nc2ccc(C[C@H](NC(=O)[C@@H]3CCCN3S(=O)(=O)c3ccccc3)C(=O)O)cc2)c(C)c1 [Compound 210, (S)-3-(4-(4-((3,5-dimethylpyridin-2-yl)amino)butanamido)phenyl)-2-((S)-1-(phenylsulfonyl)pyrrolidine-2-carboxamido)propanoic acid] |
| 10 to 1000 | N=C(N)NCCCC(=O)Nc1ccc(C[C@H](NC(=O)[C@@H]2CCCCN2S(=O)(=O)c2ccccc2)C(=O)O)cc1 [Compound 212] |
| 10 to 1000 | NCCCC(=O)Nc1ccc(C[C@H](NC(=O)[C@@H]2CCCN2S(=O)(=O)c2ccccc2)C(=O)O)cc1 [Compound 3, (S)-3-(4-(4-aminobutanamido)phenyl)-2-((S)-1-(phenylsulfonyl)pyrrolidine-2-carboxamido)propanoic acid] |
| 1000 to 10000 | NCC(=O)Nc1ccc(C[C@H](NC(=O)[C@@H]2CCCN2S(=O)(=O)c2ccccc2)C(=O)O)cc1 [Compound 1, (S)-3-(4-(2-aminoacetamido)phenyl)-2-((S)-1-(phenylsulfonyl)pyrrolidine-2-carboxamido)propanoic acid] |
| 1000 to 10000 | NCCCCC(=O)Nc1ccc(C[C@H](NC(=O)[C@@H]2CCCN2S(=O)(=O)c2ccccc2)C(=O)O)cc1 [Compound 7, (S)-3-(4-(5-aminopentanamido)phenyl)-2-((S)-1-(phenylsulfonyl)pyrrolidine-2-carboxamido)propanoic acid] |
| 10 to 1000 | Cc1ccc(NCCCC(=O)Nc2ccc(C[C@H](NC(=O)[C@@H]3CCCN3S(=O)(=O)c3ccccc3)C(=O)O)cc2)nc1 [Compound 206, (S)-3-(4-(4-((5-methylpyridin-2-yl)amino)butanamido)phenyl)-2-((S)-1-(phenylsulfonyl)pyrrolidine-2-carboxamido)propanoic acid] |
| < 10 | O=C(CCCNC1=NCCN1)Nc1ccc(C[C@H](NC(=O)[C@@H]2CCCN2S(=O)(=O)c2ccccc2)C(=O)O)cc1 [Compound 87, (S)-3-(4-(4-((4,5-dihydro-1H-imidazol-2-yl)amino)butanamido)phenyl)-2-((S)-1-(phenylsulfonyl)pyrrolidine-2-carboxamido)propanoic acid] |
| < 10 | NCCCC(=O)Nc1ccc(C[C@H](NC(=O)[C@@H]2CCCN2S(=O)(=O)c2ccccc2)C(=O)O)cc1 [Compound 6, (S)-3-(4-(4-aminobutanamido)phenyl)-2-((S)-1-(phenylsulfonyl)pyrrolidine-2-carboxamido)propanoic acid] |
| 10 to 1000 | O=C(CCCCNC1=NCCN1)Nc1ccc(C[C@H](NC(=O)[C@@H]2CCCN2S(=O)(=O)c2ccccc2)C(=O)O)cc1 [Compound 11, (S)-3-(4-(5-((4,5-dihydro-1H-imidazol-2-yl)amino)pentanamido)phenyl)-2-((S)-1-(phenylsulfonyl)pyrrolidine-2-carboxamido)propanoic acid] |
| < 10 | O=C(CCCNc1ccccn1)Nc1ccc(C[C@H](NC(=O)[C@@H]2CCCCN2S(=O)(=O)c2ccccc2)C(=O)O)cc1 [Compound 213] |
| 1000 to 10000 | NCCCCCC(=O)Nc1ccc(C[C@H](NC(=O)[C@@H]2CCCN2S(=O)(=O)c2ccccc2)C(=O)O)cc1 [Compound 9, (S)-3-(4-(6-aminohexanamido)phenyl)-2-((S)-1-(phenylsulfonyl)pyrrolidine-2-carboxamido)propanoic acid] |
| 10 to 1000 | NCCC(=O)Nc1ccc(C[C@H](NC(=O)[C@@H]2CCCN2S(=O)(=O)c2ccccc2)C(=O)O)cc1 [Compound 2, (S)-3-(4-(3-aminopropanamido)phenyl)-2-((S)-1-(phenylsulfonyl)pyrrolidine-2-carboxamido)propanoic acid] |
| 10 to 1000 | O=C(CCCc1ccc2c(n1)NCCC2)Nc1ccc(C[C@H](NC(=O)[C@@H]2CCCN2S(=O)(=O)c2ccccc2)C(=O)O)cc1 [Compound 63] |
| 10 to 1000 | O=C(CCCCNC1=NCCCN1)Nc1ccc(C[C@H](NC(=O)[C@@H]2CCCN2S(=O)(=O)c2ccccc2)C(=O)O)cc1 [Compound 60] |
| 10 to 1000 | Cc1cccc(NCCCC(=O)Nc2ccc(C[C@H](NC(=O)[C@@H]3CCCN3S(=O)(=O)c3ccccc3)C(=O)O)cc2)n1 [Compound 207, (S)-3-(4-(4-((6-methylpyridin-2-yl)amino)butanamido)phenyl)-2-((S)-1-(phenylsulfonyl)pyrrolidine-2-carboxamido)propanoic acid] |

Same assay, conditions: preliminary studies; highly selective manner

| SMILES | concentration that inhibits cell adhesion by αvβ1 integrin [pM] |
| --- | --- |
| N=C(N)NCCCCC(=O)Nc1ccc(C[C@H](NC(=O)[C@@H]2CCCN2S(=O)(=O)c2ccccc2)C(=O)O)cc1 [Compound 8, (S)-3-(4-(5-guanidinopentanamido)phenyl)-2-((S)-1-(phenylsulfonyl)pyrrolidine-2-carboxamido)propanoic acid] | < 100 |
